Data taken from patent publication US8486996B2, “Aroylfuranes and aroylthiophenes” (Basilea Pharmaceutica AG, priority 2006, dated 2013).
Where two headings read alike, the source gives them in different places.

Assays:
Format in all cases: cell-based
[1] = MTS proliferation assay (72 h read-out); settings: MRC5 cells
Method in brief: (§1)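 Viability was read by MTS absorbance at 492 nm after 3 h with reagent. Before that, cells plated a day earlier at 1.5×10^3–10^4 per well had been incubated with test compound at final concentrations of 0.001–10 μM for 72 h; activity is given as category scores A–D.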

[2] = test system: tumor cells; assay: MTS proliferation assay (72 h read-out)
Method in brief: as §1

[3] = Mitochondrial membrane potential, JC-1 (read-out 48 h); settings: PBL, JC-1, 48 h
Method in brief: (§2)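 Tumor cells were treated with test compounds (adherent cells after 24 h of attachment, suspension cells immediately), medium holding up to 5% DMSO. After 48 h, JC-1 (2-5 μg/ml in added medium) was applied for 30 min. Fluorescence microscopy (FITC/TRITC filters) scored the fraction of cells with dissipated mitochondrial membrane potential as categories A-D.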

[4] = test system: tumor cells; assay: as above; settings: JC-1, 48 h
Method in brief: as §2

[5] = Hoechst 33342 nuclear staining (48 h read-out)
Method in brief: (§3)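 Adherent cells pre-spread 24 h before dosing, suspension cells dosed at seeding; compounds at 0.001 μM-10 μM final, 48 h at culture conditions. Hoechst 33342 (2-5 μg/ml) added for 30 min, then fluorescence microscopy scoring of apoptotic nuclear fraction and apoptosis-specific morphology, reported as scores A-D.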

[6] = test system: tumor cells; assay: Hoechst 33342 nuclear staining (48 h read-out)
Method in brief: as §3

[7] = HT1080 cells, read-out: MTS proliferation assay IC50, HT1080
[8] = HeLa cells, read-out: MTS proliferation assay IC50, HeLa
[9] = Jily cells, read-out: MTS proliferation assay IC50, Jily
[10] = HeLa cells, read-out: Mitochondrial membrane potential (read-out 48 h) HeLa
[11] = Jily cells, read-out: Mitochondrial membrane potential (read-out 48 h) Jily
[12] = Jurkat cells, read-out: Mitochondrial membrane potential (read-out 48 h) Jurkat
[13] = MCF7 cells, read-out: Mitochondrial membrane potential (read-out 48 h) MCF7
[14] = MRC5 cells, read-out: Hoechst 33342 nuclear staining EC50, MRC5
[15] = PBL, read-out: Hoechst 33342 nuclear staining EC50, PBL
[16] = HeLa cells, read-out: Hoechst 33342 nuclear staining EC50, HeLa
[17] = Jily cells, read-out: Hoechst 33342 nuclear staining EC50, Jily
[18] = Jurkat cells, read-out: Hoechst 33342 nuclear staining EC50, Jurkat

SMILES: CCOc1ccc(F)cc1C(=O)c1cc2cc(OCOC)ccc2o1 [Example 69]
- IC50 [1]: 100 to 1000 nM
- IC50 [2, 7]: 100 to 1000 nM
- IC50 [2, 8]: 100 to 1000 nM
- IC50 [2, 9]: 100 to 1000 nM
- EC50 [3]: > 1000 nM
- EC50 [4, 10]: > 1000 nM
- EC50 [4, 11]: 100 to 1000 nM
- EC50 [4, 12]: 100 to 1000 nM
- EC50 [4, 13]: > 1000 nM
- EC50 [5, 14]: > 1000 nM
- EC50 [5, 15]: > 1000 nM
- EC50 [6, 16]: 100 to 1000 nM
- EC50 [6, 17]: 100 to 1000 nM
- EC50 [6, 18]: 100 to 1000 nM

SMILES: CCOc1ccc(F)cc1C(=O)c1cc2cc(OCCOC)ccc2o1 [Example 70]
- IC50 [1]: 100 to 1000 nM
- IC50 [2, 7]: 100 to 1000 nM
- IC50 [2, 8]: 100 to 1000 nM
- IC50 [2, 9]: 100 to 1000 nM
- EC50 [3]: > 1000 nM
- EC50 [4, 10]: > 1000 nM
- EC50 [4, 11]: 100 to 1000 nM
- EC50 [4, 12]: 100 to 1000 nM
- EC50 [4, 13]: > 1000 nM
- EC50 [5, 14]: 100 to 1000 nM
- EC50 [5, 15]: > 1000 nM
- EC50 [6, 16]: 100 to 1000 nM
- EC50 [6, 17]: 100 to 1000 nM
- EC50 [6, 18]: 100 to 1000 nM

SMILES: CCOc1ccc(F)cc1C(=O)c1cc2cc(OCCN(C)C)ccc2o1 [Example 71]
- IC50 [1]: > 1000 nM
- IC50 [2, 7]: > 1000 nM
- IC50 [2, 8]: > 1000 nM
- IC50 [2, 9]: > 1000 nM
- EC50 [3]: > 1000 nM
- EC50 [4, 10]: > 1000 nM
- EC50 [4, 11]: > 1000 nM
- EC50 [4, 12]: > 1000 nM
- EC50 [4, 13]: > 1000 nM
- EC50 [5, 14]: > 1000 nM
- EC50 [5, 15]: > 1000 nM
- EC50 [6, 16]: > 1000 nM
- EC50 [6, 17]: > 1000 nM
- EC50 [6, 18]: > 1000 nM

SMILES: CCOc1ccc(F)cc1C(=O)c1cc2cc(OC(=O)N(C)C)ccc2o1 [Example 72]
- IC50 [1]: 100 to 1000 nM
- IC50 [2, 7]: 100 to 1000 nM
- IC50 [2, 8]: 100 to 1000 nM
- IC50 [2, 9]: 100 to 1000 nM
- EC50 [3]: > 1000 nM
- EC50 [4, 10]: > 1000 nM
- EC50 [4, 11]: 100 to 1000 nM
- EC50 [4, 12]: 100 to 1000 nM
- EC50 [4, 13]: > 1000 nM
- EC50 [5, 14]: > 1000 nM
- EC50 [5, 15]: > 1000 nM
- EC50 [6, 16]: > 1000 nM
- EC50 [6, 17]: 100 to 1000 nM
- EC50 [6, 18]: 100 to 1000 nM

SMILES: CCOc1ccc(F)cc1C(=O)c1cc2cc(Oc3ccccn3)ccc2o1 [Example 73]
- IC50 [1]: 100 to 1000 nM
- IC50 [2, 7]: 100 to 1000 nM
- IC50 [2, 8]: 100 to 1000 nM
- IC50 [2, 9]: 100 to 1000 nM
- EC50 [3]: > 1000 nM
- EC50 [4, 10]: 100 to 1000 nM
- EC50 [4, 11]: 100 to 1000 nM
- EC50 [4, 12]: 100 to 1000 nM
- EC50 [4, 13]: > 1000 nM
- EC50 [5, 14]: 100 to 1000 nM
- EC50 [5, 15]: > 1000 nM
- EC50 [6, 16]: 100 to 1000 nM
- EC50 [6, 17]: 100 to 1000 nM
- EC50 [6, 18]: 100 to 1000 nM

SMILES: CCOc1ccc(F)cc1C(=O)c1cc2cc(CN(CC)CC)ccc2o1 [Example 74]
- IC50 [1]: > 1000 nM
- IC50 [2, 7]: > 1000 nM
- IC50 [2, 8]: > 1000 nM
- IC50 [2, 9]: > 1000 nM
- EC50 [3]: > 1000 nM
- EC50 [4, 10]: > 1000 nM
- EC50 [4, 11]: > 1000 nM
- EC50 [4, 12]: > 1000 nM
- EC50 [4, 13]: > 1000 nM
- EC50 [5, 14]: > 1000 nM
- EC50 [5, 15]: > 1000 nM
- EC50 [6, 16]: > 1000 nM
- EC50 [6, 17]: > 1000 nM
- EC50 [6, 18]: > 1000 nM

SMILES: CCNc1ncccc1C(=O)c1oc2ccc(Cl)cc2c1N [Example 76]
- IC50 [1]: > 1000 nM
- IC50 [2, 7]: > 1000 nM
- IC50 [2, 8]: > 1000 nM
- IC50 [2, 9]: > 1000 nM
- EC50 [3]: > 1000 nM
- EC50 [4, 10]: > 1000 nM
- EC50 [4, 11]: > 1000 nM
- EC50 [4, 12]: > 1000 nM
- EC50 [4, 13]: > 1000 nM
- EC50 [5, 14]: > 1000 nM
- EC50 [5, 15]: > 1000 nM
- EC50 [6, 16]: > 1000 nM
- EC50 [6, 17]: > 1000 nM
- EC50 [6, 18]: > 1000 nM

SMILES: CN(C)c1ncccc1C(=O)c1oc2ccc(Cl)cc2c1N [Example 77]
- IC50 [1]: > 1000 nM
- IC50 [2, 7]: > 1000 nM
- IC50 [2, 8]: > 1000 nM
- IC50 [2, 9]: 100 to 1000 nM
- EC50 [3]: > 1000 nM
- EC50 [4, 10]: > 1000 nM
- EC50 [4, 11]: 100 to 1000 nM
- EC50 [4, 12]: 100 to 1000 nM
- EC50 [4, 13]: > 1000 nM
- EC50 [5, 14]: > 1000 nM
- EC50 [5, 15]: > 1000 nM
- EC50 [6, 16]: > 1000 nM
- EC50 [6, 17]: 100 to 1000 nM
- EC50 [6, 18]: 100 to 1000 nM

SMILES: Nc1c(C(=O)c2cccnc2N2CCCC2)oc2ccc(Cl)cc12 [Example 79]
- IC50 [1]: > 1000 nM
- IC50 [2, 7]: 100 to 1000 nM
- IC50 [2, 8]: 100 to 1000 nM
- IC50 [2, 9]: 100 to 1000 nM
- IC50 ([2]; Jurkat cells, read-out: MTS proliferation assay IC50, Jurkat): 100 to 1000 nM
- EC50 [3]: > 1000 nM
- EC50 [4, 10]: > 1000 nM
- EC50 [4, 11]: 100 to 1000 nM
- EC50 [4, 12]: 100 to 1000 nM
- EC50 [4, 13]: > 1000 nM
- EC50 [5, 14]: > 1000 nM
- EC50 [5, 15]: > 1000 nM
- EC50 [6, 16]: > 1000 nM
- EC50 [6, 17]: > 1000 nM
- EC50 [6, 18]: 100 to 1000 nM
